A word on the AUC(0-inf): it is total exposure, with the tail of the curve extrapolated. Low values mean low exposure, high ones high exposure. The Cmax is the maximum level reached in the sampled fluid or tissue. As usually defined, the half-life is the time needed for the level to fall by half in the phase considered. A low value points to rapid decline. In general, Tmax refers to the time from dosing to the highest level.

The nature of the data set: Pharmacokinetics test in beagles after oral administration of Compound A (plasma, HPLC-FL method). The settings on record: for AUC(0-inf) / Cmax / half-life: plasma, po, 0.3 mg/kg. It is filed as in vivo, beagle. The protocol: In this example, after oral administration of Compound A, a pharmacokinetics test was carried out, in accordance with the following procedure. In the test, a time course of changes in concentrations of the unreacted compound and metabolites was measured.
Compound A was suspended in 0.5% methyl cellulose solution, and the suspension was orally administered to 10 male beagles (0.3 mg/kg). Blood was collected from each subject after 0.25, 0.5, 1.0, 2.0, 4.0, and 8.0 hours from the administration. Plasma was extracted by liquid-liquid extraction, and then, a time course of changes in concentrations of the unreacted compound and metabolites in plasma was measured according to a simultaneous measurement method (hereinafter referred to as HPLC-FL method) using HPLC and a fluorescence detector.
Conditions in the HPLC-FL method measuring Compound A and metabolites simultaneously are shown in Table 9, and concentration gradients of mobile phases are shown in Table 10.
The beagles for the pharmacokinetics test used in this example were previously selected by carrying out a phenotype analysis. In the pharmacokinetics test, 5 dogs (type I) in which the major metabolite was MM-2, and 5 dogs (type II) in which the major metabolites were MM-1 and MM-5, were used. The time course of changes in concentrations of Compound A and metabolites thereof in plasma are shown in Table 1 (type I) and Table 2 (type II)
As pharmacokinetic parameters, time of maximum observed concentration (Tmax), concentration corresponding to Tmax (Cmax), area under the plasma concentration-time curve from the time of dosing extrapolated to infinity (AUCinf), and terminal half-life (T1/2) were calculated.

Where [1] appears, read: male, beagle, dog, type I (EM) beagles, n = 5, plasma after oral Compound A 0.3 mg/kg.
The mark [2] stands for this setting: male, beagle, dog, type II (PM) beagles, n = 5, plasma after oral Compound A 0.3 mg/kg.
Setting [3] is: unreacted compound in plasma, oral 0.3 mg/kg, type II (PM) vs type I (EM) beagles.

Turning to `CCn1c(=O)nc(C2CCCCC2)c2ccc(C)nc21` [Compound A, 4-cyclohexyl-1-ethyl-7-methylpyrido[2,3-d]pyrimidin-2(1H)-one], under setting [1], the AUC(0-inf) turned out to be 2.8 ± 1.6 ng·h/mL, the Cmax was 3.2 ± 1.5 ng/mL, the half-life was 36 ± 12 min and the Tmax was 18 min. Under setting [2], this compound showed an AUC(0-inf) of 27.2 ± 20.2 ng·h/mL, a Cmax of 24 ± 14.8 ng/mL and a half-life of 48 ± 24 min. Besides, under setting [3], the “AUCinf of type II relative to type I” value amounted to 9.7 times and the “Cmax of type II relative to type I” value is listed as 7.5 times.

The values above are taken from patent US7399587B2, “Canine CYP1A2 genetic polymorphism” (Astellas Pharma Inc., priority 2003, dated 2008).
